Structures are written as SMILES.

This note sets out measurements from patent publication US20250163075A1, “HETEROBI[…] PROTEIN […]” (priority 2023, published 2025).

The target of assay [1] is T1, KLHDC2 (Homo sapiens (Human), UniProt Q9Y2U9). In words: Sypro orange thermal stability (thermal shift) assay. It is filed as binding. The procedure: To identify small molecules that bind to KLHDC2 the Sypro orange thermal stability assay was utilized. […] Assay solution containing 0.5 μM KLHDC2, 25 mM HEPES, 200 mM NaCl and 5% Sypro Orange pH 7.5 was added to a final volume of 20 ul and a final experimental ligand concentration of 50 uM. DMSO alone was included as a negative control and peptide sub2 was included as a positive control at 100 uM. The fluorescence of Sypro orange in each sample was measured on a Quantstudio 5 or a Quantstudio 6 at temperatures ranging from 23 to 75° C. at 0.05° C./second. Data reduction resulting in thermal stability (calculated using the Boltzmann and first derivative minima equations) was completed in the Thermo Scientific protein thermal shift software v1.4.

The target of assay [2] is T1, KLHDC2. In words: Time-resolved fluorescence energy transfer (TR-FRET) assay with Bodipy-labeled ligand probe. The format is binding. From the text: The integration start was set to 100 μs, and the integration time was set to 200 μs. The number of flashes was fixed at 100.
A general note: In TR-FRET formats the signal depends on donor and acceptor labels being close together.

T1 sequence (Q9Y2U9 whole entry): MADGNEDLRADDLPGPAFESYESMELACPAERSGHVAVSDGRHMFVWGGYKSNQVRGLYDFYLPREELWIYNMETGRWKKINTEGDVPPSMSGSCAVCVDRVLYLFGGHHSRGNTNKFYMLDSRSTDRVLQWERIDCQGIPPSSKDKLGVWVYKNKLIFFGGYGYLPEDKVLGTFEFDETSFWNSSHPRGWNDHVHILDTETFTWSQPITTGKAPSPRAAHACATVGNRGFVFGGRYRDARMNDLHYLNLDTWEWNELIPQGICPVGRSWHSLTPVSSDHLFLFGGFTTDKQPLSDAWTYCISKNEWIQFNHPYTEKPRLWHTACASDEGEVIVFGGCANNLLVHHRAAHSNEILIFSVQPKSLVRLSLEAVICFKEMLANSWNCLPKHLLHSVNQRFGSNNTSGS

Consider `O=C(O)CNC(=O)Cc1csc(-c2ccc3ccccc3c2)n1` [Compound 8, (2-(2-(Naphthalen-2-yl)Thiazol-4-yl)Acetyl)Glycine], for which the “ΔTm (° C.) 50 μM ligand” value at KLHDC2 [1] (Table 1, 0.5 μM KLHDC2) amounted to 6.0 ± 0.0 °C. Further, half-maximal inhibition against KLHDC2 [2] (Table 1) (IC50) required 3.9 µM. Take `O=C(O)CNC(=O)Cc1csc(-c2cccc3ccncc23)n1` [Compound 9, (2-(2-(Isoquinolin-8-yl)Thiazol-4-yl)Acetyl)Glycine]: the “ΔTm (° C.) 50 μM ligand” value at KLHDC2 [1] (Table 1, 0.5 μM KLHDC2) came out at 1.8 ± 0.0 °C. On KLHDC2 [2] (Table 1), 20.3 µM corresponded to half-maximal inhibition (IC50). Take `COc1ccc2cc(-c3nc(CC(=O)NCC(=O)O)cs3)ccc2c1` [Compound 10, (2-(2-(6-Methoxynaphthalen-2-yl)Thiazol-4-yl)Acetyl)Glycine]: the “ΔTm (° C.) 50 μM ligand” value at KLHDC2 [1] (Table 1, 0.5 μM KLHDC2) amounted to 3.9 ± 0.1 °C. Besides, the IC50 against KLHDC2 [2] (Table 1) was found to be 9.6 µM. As to `O=C(O)CNC(=O)Cc1csc(-c2cccc3cccnc23)n1` [Compound 11, (2-(2-(Quinolin-8-yl)Thiazol-4-yl)Acetyl)Glycine], the “ΔTm (° C.) 50 μM ligand” value at KLHDC2 [1] (Table 1, 0.5 μM KLHDC2) turned out to be 2.7 ± 0.4 °C. Further, the half-maximal inhibitory concentration (IC50) against KLHDC2 [2] (Table 1) was found to be 7.1 µM. With `O=C(O)CNC(=O)Cc1csc(-c2cccc3ccccc23)n1` [Compound 12, (2-(2-(Naphthalen-1-yl)Thiazol-4-yl)Acetyl)Glycine], the “ΔTm (° C.) 50 μM ligand” value at KLHDC2 [1] (Table 1, 0.5 μM KLHDC2) worked out at 3.7 ± 0.0 °C. The compound further yielded an IC50 on KLHDC2 [2] (Table 1) of 8.8 µM. In the case of `O=C(O)CNC(=O)Cc1csc(-c2ccc3ccccc3c2F)n1` [Compound 13, (2-(2-(1-Fluoronaphthalen-2-yl)Thiazol-4-yl)Acetyl)Glycine], at KLHDC2 [1] (Table 1, 0.5 μM KLHDC2), the “ΔTm (° C.) 50 μM ligand” value came out at 6.0 ± 0.2 °C. Further, the half-inhibitory concentration (IC50) against KLHDC2 [2] (Table 1) was 1.8 µM.

With `COc1ccc2ccc(-c3nc(CC(=O)NCC(=O)O)cs3)cc2c1` [Compound 14, (2-(2-(7-Methoxynaphthalen-2-yl)Thiazol-4-yl)Acetyl)Glycine], the “ΔTm (° C.) 50 μM ligand” value on KLHDC2 [1] (Table 1, 0.5 μM KLHDC2) was 4.3 ± 0.2 °C. Besides, it took 1.7 µM to reach half-maximal inhibition at KLHDC2 [2] (Table 1) (IC50).

Regarding `COCCOc1cccc2ccc(-c3nc(CC(=O)NCC(=O)O)cs3)cc12` [Compound 15A], on KLHDC2 [1] (Table 2, 0.5 μM KLHDC2), the “ΔTm (° C.) 50 μM ligand” value turned out to be 4.3 ± 0.2 °C. The half-maximal inhibitory concentration (IC50) on KLHDC2 [2] (Table 2) came to 1.1 µM. For `O=C(O)CNC(=O)Cc1csc(-c2ccc3cccc(OCCN4CCNCC4)c3c2)n1` [Compound 19, (2-(2-(8-(2-(Piperazin-1-yl)Ethoxy)Naphthalen-2-yl)Thiazol-4-yl)Acetyl)Glycine], on KLHDC2 [1] (Table 2, 0.5 μM KLHDC2), the “ΔTm (° C.) 50 μM ligand” value turned out to be 4.8 ± 0.0 °C. The compound also came in with an IC50 against KLHDC2 [2] (Table 2) of 1.6 µM. For `O=C(O)CNC(=O)Cc1csc(-c2ccc3cc[nH]c3c2)n1` [Compound 23, (2-(2-(1H-Indol-6-yl)Thiazol-4-yl)Acetyl)Glycine], it took 1.1 µM to reach half-maximal inhibition on KLHDC2 [2] (Table 1) (IC50).

Compound `O=C(O)CNC(=O)Cc1csc(-c2ccc3ccn(CCCN4CCNCC4)c3c2)n1` [Compound 24, (2-(2-(1-(3-(Piperazin-1-yl)Propyl)-1H-Indol-6-yl)Thiazol-4-yl)Acetyl)Glycine] registered a half-maximal inhibitory concentration (IC50) at KLHDC2 [2] (Table 2) of 1.2 µM.

For the compound `O=C(O)CNC(=O)Cc1csc(-c2ccc3c(c2)NCCO3)n1` [Compound 27, (2-(2-(3,4-Dihydro-2H-Benzo[B][1,4]Oxazin-6-yl)Thiazol-4-yl)Acetyl)Glycine], the IC50 against KLHDC2 [2] (Table 1) worked out at 3 µM.

`COCOc1ccc(-c2nc(CC(=O)NCC(=O)O)cs2)c(Cl)c1` [i]: the “ΔTm (° C.) 50 μM ligand” value at KLHDC2 [1] (Table 1, 0.5 μM KLHDC2) was determined as 3.52 ± 0.424 °C. In addition, on KLHDC2 [2] (Table 1), the IC50 came to 24.1 µM.

As usually defined, the IC50 is the point on the concentration scale where inhibition reaches its midpoint. Higher therefore signals lower potency.
